Measured values taken from US10111937B2, “Method of reducing accumulation of intracellular tingible body macrophages” (THE REGENTS OF THE UNIVERSITY OF MICHIGAN, priority 2008, dated 2018).

Columns and labels:
[1] = biological target: T1, LPLA2 (Canis lupus familiaris, UniProt Q6XPZ3); assay: LPLA2 activity in MDCK cells treated with cationic amphiphilic drugs, measured as transacylation of N-acetylsphingosine; format: cell-based
T1 construct: endogenous in cells; host or cells: MDCK cells
T1 sequence (Q6XPZ3 32-408): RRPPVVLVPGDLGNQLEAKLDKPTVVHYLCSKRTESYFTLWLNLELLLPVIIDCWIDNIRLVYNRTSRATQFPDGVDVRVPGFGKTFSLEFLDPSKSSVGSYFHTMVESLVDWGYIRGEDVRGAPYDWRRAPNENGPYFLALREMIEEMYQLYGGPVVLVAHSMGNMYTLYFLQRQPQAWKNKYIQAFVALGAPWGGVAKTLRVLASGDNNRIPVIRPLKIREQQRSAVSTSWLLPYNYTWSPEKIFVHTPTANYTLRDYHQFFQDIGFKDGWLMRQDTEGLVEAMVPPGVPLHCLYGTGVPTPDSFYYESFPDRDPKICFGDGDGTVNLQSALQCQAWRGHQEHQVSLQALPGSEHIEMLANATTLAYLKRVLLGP
Description: LPLA2 activity was measured as the transacylation of N-acetylsphingosine. […] The major cellular phospholipids were assayed following 1 or 7 days of exposure to the CAD.

[2] = system: acidic transacylation of ceramide; details: lysosomal fraction of cells; earlier observation; cited from earlier work
[3] = biological target: T2, recombinant mouse LPLA2 (Mus musculus, UniProt Q8VEB4); assay: Co-sedimentation of LPLA2 with liposomes (ultracentrifugation, SDS-PAGE); format: binding; details: DOPC or DOPC/sulfatide (10:1) liposomes; 33 μM amiodarone; FIGS. 13B and 13C
T2 sequence (Q8VEB4 34-412): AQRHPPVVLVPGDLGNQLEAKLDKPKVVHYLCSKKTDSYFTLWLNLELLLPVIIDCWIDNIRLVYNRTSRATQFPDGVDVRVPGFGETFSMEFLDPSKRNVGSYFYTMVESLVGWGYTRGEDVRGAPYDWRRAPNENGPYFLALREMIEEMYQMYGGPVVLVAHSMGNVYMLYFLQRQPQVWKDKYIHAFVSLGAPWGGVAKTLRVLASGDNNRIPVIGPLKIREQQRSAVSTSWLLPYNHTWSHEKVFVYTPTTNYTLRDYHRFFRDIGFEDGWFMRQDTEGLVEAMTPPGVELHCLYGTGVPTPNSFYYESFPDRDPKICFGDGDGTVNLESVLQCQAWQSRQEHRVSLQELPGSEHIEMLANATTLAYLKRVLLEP
Description: Liposomes consisting of DOPC or DOPC/sulfatide (10:1, molar ratio) were incubated with varying amounts of recombinant mouse LPLA2 in 500 μl of 48 mM Na-citrate (pH 4.5) for 30 min on ice (FIG. 13A). […] The reaction mixtures were centrifuged for 1 h at 150,000 g at 4° C. The concentration of DOPC in these assays was 127 μM. The resultant precipitates were briefly washed with cold 50 mM Na-citrate (pH 4.5) and dissolved with 40 μl of SDS-polyacrylamide gel electrophoresis sampling buffer. The samples were separated by using 12% SDS-polyacrylamide gel. After electrophoresis, LPLA2 was detected by staining with CBB.

[4] = biological target: T3, LPLA2 (Homo sapiens, UniProt Q8NCC3); details: background description; cited from earlier work
T3 sequence (Q8NCC3 34-412): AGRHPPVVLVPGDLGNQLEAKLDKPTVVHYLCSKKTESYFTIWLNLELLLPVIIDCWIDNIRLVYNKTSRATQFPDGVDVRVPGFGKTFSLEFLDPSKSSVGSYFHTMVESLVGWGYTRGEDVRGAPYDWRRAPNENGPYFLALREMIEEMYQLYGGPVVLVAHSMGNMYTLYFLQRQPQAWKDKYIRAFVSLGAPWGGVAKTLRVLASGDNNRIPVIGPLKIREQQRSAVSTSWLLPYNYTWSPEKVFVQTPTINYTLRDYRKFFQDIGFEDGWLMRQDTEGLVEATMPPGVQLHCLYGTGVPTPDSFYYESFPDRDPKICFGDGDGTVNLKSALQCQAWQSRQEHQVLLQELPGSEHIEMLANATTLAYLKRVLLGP

[5] = system: LPLA2 null alveolar macrophages; assay: Uptake of recombinant LPLA2 into LPLA2 null alveolar macrophages (Western blotting, confocal microscopy, enzyme activity); format: cell-based, mouse
Description: Recombinant glycosylated mouse LPLA2 produced by HEK293 cells was applied to LPLA2-deficient (LPLA2−/−) mouse alveolar macrophages. […] Thus, the predominant pathway for uptake of exogenous LPLA2 is via the mannose receptor. (Abe et al., J. Immunol, 181(11):7873-81, 2008).
The ability of macrophages from LPLA2−/− mice to recognize, endocytose, and traffic recombinant LPLA2 was studied as follows. LPLA2 null alveolar macrophages were exposed to His-tagged mouse LPLA2 for 1 day at concentrations varying between 0.3 and 10 μg/ml. Cell incorporation was measured by Western blotting and confocal microscopy using either anti-His antibody or a monoclonal antibody raised to LPLA2.
(§1) Finally, the ability of the recombinant enzyme to “rescue” the cellular phenotype was confirmed by measuring the cellular phospholipid content.

[6] = system: LPLA2 null alveolar macrophages; details: Abe et al. J. Immunol 2008; cited from earlier work
[7] = biological target: T2, recombinant mouse LPLA2; assay: 1-O-acylceramide synthase (transacylase) activity of recombinant LPLA2 on liposomes, 1-O-oleoyl-NAS by HPTLC; format: biochemical; details: DOPC/sulfatide/NAS liposomes vs DOPC/NAS, pH 4.5, 5-45 min at 37° C.; FIGS. 11A and 11B
Description: To address this possibility, the 1-O-acylceramide synthase activity of LPLA2 was studied in liposomes in which the anionic lipid content was varied by the addition of sulfatide, a negatively charged, sulfate containing glycolipid that is not a substrate for LPLA2. Di-octanoyl-PC (DOPC) was used as the liposomal substrate. The reaction mixture contained 48 mM sodium citrate (pH 4.5), 10 μg/ml BSA, liposomes (127 μM phospholipid) and 14.5 ng/ml of recombinant mouse LPLA2 in 500 μl of total volume. Liposomes consisting of DOPC/NAS (3:1, molar ratio) or DOP/sulfatide/NAS (3:0.3:1, molar ratio) were incubated with the enzyme for 5, 10, 15, 30 and 45 min at 37° C. The reaction products were extracted and separated by an HPTLC plate using a solvent system consisting of chloroform/acetic acid (9:1, v/v). The reaction product, 1-O-oleoyl-NAS, quantified by scanning the plate, was plotted against time (FIG. 11A). Liposomes consisting of DOPC/galactosylceramide/NAS or DOPC/sulfatide/NAS with a different molar ratio were incubated with the recombinant enzyme at 37° C. (FIG. 11B).

[8] = system: LPLA2 null alveolar macrophages; assay: Rescue of cellular phospholipid content in LPLA2 null alveolar macrophages by recombinant enzyme; format: cell-based, mouse; details: LPLA2 null alveolar macrophages treated with enzyme
Description: as §1

## CCCCCCCCCC(=O)NC(CN1CCOCC1)C(O)c1ccccc1 (centres unmarked) [PDMP, 1-phenyl-2-decanoylamino-3-morpholino-1-propanol]
[1]; MDCK cells treated for 1 or seven days, FIG. 10A
  inhibition of LPLA2 activity as measured by ceramide transacylation: concentration dependent inhibition of LPLA2 activity
[1]; MDCK cells, no numbers given
  IC50 for enzyme inhibition: comparable IC50s
[2]
  inhibition of acidic transacylation of ceramide: inhibit acidic transacylation of ceramide

## CCCCc1oc2ccccc2c1C(=O)c1cc(I)c(OCCN(CC)CC)c(I)c1 [amiodarone]
[3]
  physical association between LPLA2 and liposomes: inhibited

## O=C1O/C(=C/Br)CCC1c1cccc2ccccc12 (centres unmarked) [bromoenollactone]
[4]
  inhibition of LPLA2 enzyme activity: do not inhibit the enzyme activity

## CCCCC/C=C\C/C=C\C/C=C\C/C=C\CCCC(=O)C(F)(F)F [nonadecyltetraenyl trifluoromethyl ketone]
[4]
  inhibition of LPLA2 enzyme activity: do not inhibit the enzyme activity

## COC1O[C@H](CO)[C@@H](O)[C@H](O)[C@@H]1O (stereo partly drawn) [α-Methyl-mannoside, α-methyl-mannoside]
[5]; 10 mM, 1-O-acyl-ceramide synthase activity, immunoblotting, confocal microscopy
  blocking of incorporation of recombinant LPLA2: blocked the incorporation of LPLA2
[6]
  suppression of uptake of exogenous LPLA2: significantly suppressed

## sulfatide
[7]
  transacylation activity in presence of anionic lipid: time dependent increase in the transacylation activity
[3]
  physical association between LPLA2 and liposomes: increased

B1: Recombinant glycosylated mouse LPLA2: Recombinant glycosylated mouse LPLA2 produced by HEK293 cells (protein, UniProt Q8VEB4 34-412, looked up)
Lysosomal phospholipase A and …: AQRHPPVVLVPGDLGNQLEAKLDKPKVVHYLCSKKTDSYFTLWLNLELLLPVIIDCWIDNIRLVYNRTSRATQFPDGVDVRVPGFGETFSMEFLDPSKRNVGSYFYTMVESLVGWGYTRGEDVRGAPYDWRRAPNENGPYFLALREMIEEMYQMYGGPVVLVAHSMGNVYMLYFLQRQPQVWKDKYIHAFVSLGAPWGGVAKTLRVLASGDNNRIPVIGPLKIREQQRSAVSTSWLLPYNHTWSHEKVFVYTPTTNYTLRDYHRFFRDIGFEDGWFMRQDTEGLVEAMTPPGVELHCLYGTGVPTPNSFYYESFPDRDPKICFGDGDGTVNLESVLQCQAWQSRQEHRVSLQELPGSEHIEMLANATTLAYLKRVLLEP
modifications: HEK293-produced glycosylated
notes: Recombinant glycosylated mouse LPLA2 produced by HEK293 cells
[6]
  uptake of exogenous LPLA2 into LPLA2−/− alveolar macrophages: occurred in a concentration-dependent manner

B2: His-tagged mouse LPLA2: His-tagged recombinant mouse lysosomal phospholipase A2 applied to LPLA2 null alveolar macrophages (protein)
chain: AQRHPPVVLVPGDLGNQLEAKLDKPKVVHYLCSKKTDSYFTLWLNLELLLPVIIDCWIDNIRLVYNRTSRATQFPDGVDVRVPGFGETFSMEFLDPSKRNVGSYFYTMVESLVGWGYTRGEDVRGAPYDWRRAPNENGPYFLALREMIEEMYQMYGGPVVLVAHSMGNVYMLYFLQRQPQVWKDKYIHAFVSLGAPWGGVAKTLRVLASGDNNRIPVIGPLKIREQQRSAVSTSWLLPYNHTWSHEKVFVYTPTTNYTLRDYHRFFRDIGFEDGWFMRQDTEGLVEAMTPPGVELHCLYGTGVPTPNSFYYESFPDRDPKICFGDGDGTVNLESVLQCQAWQSRQEHRVSLQELPGSEHIEMLANATTLAYLKRVLLEP
modifications: left off: small tags and cut ends
notes: His-tagged recombinant mouse lysosomal phospholipase A2 applied to LPLA2 null alveolar macrophages
[5]; 1 day at 0.3 to 10 μg/ml, Western blotting, confocal microscopy, enzyme activity
  cellular LPLA2 (cell incorporation): concentration dependent increase in cellular LPLA2
[5]; cells stained with anti-LPLA2 and Lamp-1 antibodies
  co-localization with lysosome protein Lamp-1: readily detected
[8]
  cell phosphatidylcholine and phosphatidylethanolamine content: concentration dependent decrease in cell phosphatidylcholine and phosphatidylethanolamine
